Assay results published in patent publication US12568972B2, “Pyridazinol compounds and derivatives, preparation methods, herbicidal compositions and applications thereof” (Qingdao Kingagroot Chemical Compound Co., Ltd., priority 2018, dated 2026).

Legend:
Experiment in all cases: Post-emergence test, weed control effect
Format in all cases: in vivo
Settings in all cases: Dose 3000 g/ha, after 3 weeks
[1] = tested on: Amaranthus retroflexus
Text: (§1) The activity level standard of harmful plant destruction (i.e. growth inhibition rate) is as follows: • Level 10: completely dead; • Level 9: above 90% growth inhibition rate; • Level 8: above 80% growth inhibition rate; • Level 7: above 70% growth inhibition rate; • Level 6: above 60% growth inhibition rate; • Level 5: above 50% growth inhibition rate; • Level 4: above 40% growth inhibition rate; • Level 3: above 30% growth inhibition rate; • Level 2: above 20% growth inhibition rate; • Level 1: below 20% growth inhibition rate; • Level 0: no effect.
(§2) The above described growth inhibition rates are fresh weight inhibition rates.
(§3) Experiment of post-emergence test: monocotyledonous and dicotyledonous weed seeds as well as main crop seeds (i.e., wheat, corn, rice, soybean, cotton, oilseed rape, millet and sorghum) were put into a plastic pot loaded with soil, then covered with 0.5-2 cm of soil, and the seeds were allowed to grow in good greenhouse environment. The test plants were treated at 2-3 leaf stage 2-3 weeks after sowing. The test compounds of the invention were dissolved in acetone respectively, then added with Tween-80 and diluted by a certain amount of water to give solutions with certain concentrations, and added with 80% vegetable oil methyl ester synergist at 1500 g/ha. The solution was sprayed to the plants with a sprayer. The plants were cultured for 3 weeks in the greenhouse.

[2] = tested on: Chenopodiaceae
Text: as §1, §2, §3

[3] = tested on: Rorippa indica
Text: as §1, §2, §3

[4] = tested on: Veronica polita
Text: as §1, §2, §3

O=C(Cc1ccccc1)Oc1cc(C(F)(F)F)nnc1-c1ccc(F)c(F)c1 [Compound 1-94]
10: weed control effect, Amaranthus retroflexus (activity level) [1] | weed control effect, Chenopodiaceae (activity level) [2] | weed control effect, Rorippa indica (activity level) [3] | weed control effect, Veronica polita (activity level) [4]

O=C(CSc1ccccc1)Oc1cc(C(F)(F)F)nnc1-c1ccc(F)c(F)c1 [Compound 1-95]
10: weed control effect, Amaranthus retroflexus (activity level) [1] | weed control effect, Chenopodiaceae (activity level) [2] | weed control effect, Rorippa indica (activity level) [3] | weed control effect, Veronica polita (activity level) [4]

O=C(/C=C\c1ccccc1)Oc1cc(C(F)(F)F)nnc1-c1ccc(Cl)cc1 [Compound 1-96]
10: weed control effect, Amaranthus retroflexus (activity level) [1] | weed control effect, Chenopodiaceae (activity level) [2] | weed control effect, Rorippa indica (activity level) [3] | weed control effect, Veronica polita (activity level) [4]

O=C(/C=C/c1ccc(Cl)cc1)Oc1cc(C(F)(F)F)nnc1-c1ccc(F)cc1 [Compound 1-97]
10: weed control effect, Amaranthus retroflexus (activity level) [1] | weed control effect, Chenopodiaceae (activity level) [2] | weed control effect, Rorippa indica (activity level) [3] | weed control effect, Veronica polita (activity level) [4]

O=C(CCc1ccccc1)Oc1cc(C(F)(F)F)nnc1-c1ccc(F)c(F)c1 [Compound 1-98]
10: weed control effect, Amaranthus retroflexus (activity level) [1] | weed control effect, Chenopodiaceae (activity level) [2] | weed control effect, Rorippa indica (activity level) [3] | weed control effect, Veronica polita (activity level) [4]

O=C(CCc1ccccc1)Oc1cc(C(F)(F)F)nnc1-c1ccc(F)cc1 [Compound 1-99]
10: weed control effect, Amaranthus retroflexus (activity level) [1] | weed control effect, Chenopodiaceae (activity level) [2] | weed control effect, Rorippa indica (activity level) [3] | weed control effect, Veronica polita (activity level) [4]

O=C(COCc1ccccc1)Oc1cc(C(F)(F)F)nnc1-c1ccc(F)c(F)c1 [Compound 1-100]
10: weed control effect, Amaranthus retroflexus (activity level) [1] | weed control effect, Chenopodiaceae (activity level) [2] | weed control effect, Rorippa indica (activity level) [3] | weed control effect, Veronica polita (activity level) [4]

COc1ccc(OCC(=O)Oc2cc(C(F)(F)F)nnc2-c2ccc(F)cc2)cc1 [Compound 1-101]
10: weed control effect, Amaranthus retroflexus (activity level) [1] | weed control effect, Chenopodiaceae (activity level) [2] | weed control effect, Rorippa indica (activity level) [3] | weed control effect, Veronica polita (activity level) [4]

O=C(Oc1cc(C(F)(F)F)nnc1-c1ccc(Cl)c(Cl)c1)Sc1ccccc1 [Compound 1-102]
10: weed control effect, Amaranthus retroflexus (activity level) [1] | weed control effect, Chenopodiaceae (activity level) [2] | weed control effect, Rorippa indica (activity level) [3] | weed control effect, Veronica polita (activity level) [4]

CSc1ccc(-c2nnc(C(F)(F)F)cc2OC(=O)SCCc2ccccc2)cc1 [Compound 1-103]
10: weed control effect, Amaranthus retroflexus (activity level) [1] | weed control effect, Chenopodiaceae (activity level) [2] | weed control effect, Rorippa indica (activity level) [3] | weed control effect, Veronica polita (activity level) [4]

O=C(Oc1cc(C(F)(F)F)nnc1-c1ccc(F)c(F)c1)c1ccco1 [Compound 1-104]
10: weed control effect, Amaranthus retroflexus (activity level) [1] | weed control effect, Chenopodiaceae (activity level) [2] | weed control effect, Rorippa indica (activity level) [3] | weed control effect, Veronica polita (activity level) [4]

Cn1cccc1C(=O)Oc1cc(C(F)(F)F)nnc1-c1ccccc1 [Compound 1-105]
10: weed control effect, Amaranthus retroflexus (activity level) [1] | weed control effect, Chenopodiaceae (activity level) [2] | weed control effect, Rorippa indica (activity level) [3] | weed control effect, Veronica polita (activity level) [4]

O=C(Oc1cc(C(F)(F)F)nnc1-c1ccc(C(F)(F)F)cc1)c1cccs1 [Compound 1-106]
10: weed control effect, Amaranthus retroflexus (activity level) [1] | weed control effect, Chenopodiaceae (activity level) [2] | weed control effect, Rorippa indica (activity level) [3] | weed control effect, Veronica polita (activity level) [4]

Cc1cc(C(=O)Oc2cc(C(F)(F)F)nnc2-c2ccc(F)c(F)c2)no1 [Compound 1-107]
10: weed control effect, Amaranthus retroflexus (activity level) [1] | weed control effect, Chenopodiaceae (activity level) [2] | weed control effect, Rorippa indica (activity level) [3] | weed control effect, Veronica polita (activity level) [4]

Cc1ncoc1C(=O)Oc1cc(C(F)(F)F)nnc1-c1ccc(F)c(F)c1 [Compound 1-108]
10: weed control effect, Amaranthus retroflexus (activity level) [1] | weed control effect, Chenopodiaceae (activity level) [2] | weed control effect, Rorippa indica (activity level) [3] | weed control effect, Veronica polita (activity level) [4]

O=C(Oc1cc(C(F)(F)F)nnc1-c1ccc(F)cc1)c1ccno1 [Compound 1-109]
10: weed control effect, Amaranthus retroflexus (activity level) [1] | weed control effect, Chenopodiaceae (activity level) [2] | weed control effect, Rorippa indica (activity level) [3] | weed control effect, Veronica polita (activity level) [4]

O=C(Oc1cc(C(F)(F)F)nnc1-c1ccc(F)c(F)c1)c1ccc(Cl)nc1 [Compound 1-110]
10: weed control effect, Amaranthus retroflexus (activity level) [1] | weed control effect, Chenopodiaceae (activity level) [2] | weed control effect, Rorippa indica (activity level) [3] | weed control effect, Veronica polita (activity level) [4]

O=C(Oc1cc(C(F)(F)F)nnc1-c1ccc(Cl)cc1)c1cc(Cl)nc(Cl)n1 [Compound 1-111]
10: weed control effect, Amaranthus retroflexus (activity level) [1] | weed control effect, Chenopodiaceae (activity level) [2] | weed control effect, Rorippa indica (activity level) [3] | weed control effect, Veronica polita (activity level) [4]

O=C(Oc1cc(C(F)(F)F)nnc1-c1ccc(F)c(F)c1)c1cnccn1 [Compound 1-112]
10: weed control effect, Amaranthus retroflexus (activity level) [1] | weed control effect, Chenopodiaceae (activity level) [2] | weed control effect, Rorippa indica (activity level) [3] | weed control effect, Veronica polita (activity level) [4]

CCSc1ncccc1C(=O)Oc1cc(C(F)(F)F)nnc1-c1ccc(F)c(F)c1 [Compound 1-113]
10: weed control effect, Amaranthus retroflexus (activity level) [1] | weed control effect, Chenopodiaceae (activity level) [2] | weed control effect, Rorippa indica (activity level) [3] | weed control effect, Veronica polita (activity level) [4]

O=C(Oc1cc(C(F)(F)F)nnc1-c1ccc(F)cc1)c1ccc2ccccc2c1 [Compound 1-114]
10: weed control effect, Amaranthus retroflexus (activity level) [1] | weed control effect, Chenopodiaceae (activity level) [2] | weed control effect, Rorippa indica (activity level) [3] | weed control effect, Veronica polita (activity level) [4]

O=C(Oc1cc(C(F)(F)F)nnc1-c1ccc(F)c(F)c1)c1ccc2[nH]ccc2c1 [Compound 1-115]
10: weed control effect, Amaranthus retroflexus (activity level) [1] | weed control effect, Chenopodiaceae (activity level) [2] | weed control effect, Rorippa indica (activity level) [3] | weed control effect, Veronica polita (activity level) [4]

O=C(Oc1cc(C(F)(F)F)nnc1-c1ccc(Cl)cc1)c1ccc2ccccc2n1 [Compound 1-116]
10: weed control effect, Amaranthus retroflexus (activity level) [1] | weed control effect, Chenopodiaceae (activity level) [2] | weed control effect, Rorippa indica (activity level) [3] | weed control effect, Veronica polita (activity level) [4]

O=C(Oc1cc(C(F)(F)F)nnc1-c1ccccc1)c1ccc2occc2c1 [Compound 1-117]
10: weed control effect, Amaranthus retroflexus (activity level) [1] | weed control effect, Chenopodiaceae (activity level) [2] | weed control effect, Rorippa indica (activity level) [3] | weed control effect, Veronica polita (activity level) [4]

O=C(Oc1cc(C(F)(F)F)nnc1-c1ccc(C(F)(F)F)cc1)c1cccc2c1OCO2 [Compound 1-118]
10: weed control effect, Amaranthus retroflexus (activity level) [1] | weed control effect, Chenopodiaceae (activity level) [2] | weed control effect, Rorippa indica (activity level) [3] | weed control effect, Veronica polita (activity level) [4]

O=C(Oc1cc(C(F)(F)F)nnc1-c1ccc(F)cc1)c1cccc2ccsc12 [Compound 1-119]
10: weed control effect, Amaranthus retroflexus (activity level) [1] | weed control effect, Chenopodiaceae (activity level) [2] | weed control effect, Rorippa indica (activity level) [3] | weed control effect, Veronica polita (activity level) [4]

O=C(Oc1cc(C(F)(F)F)nnc1-c1ccc(F)c(F)c1)c1cc2ccccc2o1 [Compound 1-120]
10: weed control effect, Amaranthus retroflexus (activity level) [1] | weed control effect, Chenopodiaceae (activity level) [2] | weed control effect, Rorippa indica (activity level) [3] | weed control effect, Veronica polita (activity level) [4]
